Source: ChEMBL document CHEMBL1201862, “PubChem BioAssay data set” (2004)
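Method: 48-hour compound exposure of cells in 96-well plates, five concentrations, linear interpolation of endpoints. The concentration for 50% growth inhibition is given as GI50.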 Activity calls are given as the source filed them. No stated cut-off is given here; in the data, active = GI50 up to about 1.1 µM and inactive = higher.

Experiments:
Assay in all cases: inhibition of tumour cell growth, NCI panel, 48 h
M14 = test system: M14
ACHN = test system: ACHN
SNB-78 = test system: SNB-78
DMS-273 = test system: DMS-273
A498 = test system: A498
HOP-92 = test system: HOP-92
DLD-1 = test system: DLD-1
SR = test system: SR
KM-20L2 = test system: KM-20L2
CAKI-1 = test system: CAKI-1
Malme-3M = test system: Malme-3M
XF498 = test system: XF498
M19-MEL = test system: M19-MEL
DMS-114 = test system: DMS-114
MCF7 = test system: MCF7
NCI-H226 = test system: NCI-H226
NCI/ADR-RES = test system: NCI/ADR-RES
HOP-18 = test system: HOP-18
786-0 = test system: 786-0

Row | SMILES | GI50 (M14) | GI50 (ACHN) | GI50 (SNB-78) | GI50 (DMS-273) | GI50 (A498) | GI50 (HOP-92) | GI50 (DLD-1) | GI50 (SR) | GI50 (KM-20L2) | GI50 (CAKI-1) | GI50 (Malme-3M) | GI50 (XF498) | GI50 (M19-MEL) | GI50 (DMS-114) | GI50 (MCF7) | GI50 (NCI-H226) | GI50 (NCI/ADR-RES) | GI50 (HOP-18) | GI50 (786-0)
1 | CCCCCCCCC[C@@H]1C[C@H](O)[C@H](Cc2ccccc2)N1C(=O)OC(C)(C)C | 22.6 µM (inactive) | 17.1 µM (inactive) | 22.8 µM (inactive) | 18.1 µM (inactive) | 19.5 µM (inactive) | 15 µM (inactive) | 18.3 µM (inactive) | 18.2 µM (inactive) | 17.1 µM (inactive) | 21.9 µM (inactive) | 20.1 µM (inactive) | 22.2 µM (inactive) | 16.8 µM (inactive) | 16.9 µM (inactive) | – | – | – | – | –
2 | O=C(O)/C=C/c1c[nH]cn1 | – | – | – | > 500 µM (inactive) | > 500 µM (inactive) | > 500 µM (inactive) | > 500 µM (inactive) | – | – | > 500 µM (inactive) | > 500 µM (inactive) | > 500 µM (inactive) | > 500 µM (inactive) | > 500 µM (inactive) | > 500 µM (inactive) | > 500 µM (inactive) | > 500 µM (inactive) | > 500 µM (inactive) | –
3 | O=C(Nc1ccc(C2=NCCN2)cc1)c1cncc(C(=O)Nc2ccc(C3=NCCN3)cc2)c1 | – | – | > 100 µM (inactive) | > 100 µM (inactive) | > 100 µM (inactive) | > 100 µM (inactive) | > 100 µM (inactive) | – | > 100 µM (inactive) | > 100 µM (inactive) | > 100 µM (inactive) | > 100 µM (inactive) | > 100 µM (inactive) | > 100 µM (inactive) | > 100 µM (inactive) | > 94.6 µM (inactive) | > 100 µM (inactive) | > 100 µM (inactive) | –
4 | CCC1CN2CCC1CC2 (stereo not drawn) | – | – | > 100 µM (inactive) | > 100 µM (inactive) | > 100 µM (inactive) | – | > 100 µM (inactive) | – | > 100 µM (inactive) | – | > 100 µM (inactive) | > 100 µM (inactive) | > 100 µM (inactive) | > 100 µM (inactive) | > 100 µM (inactive) | > 100 µM (inactive) | > 100 µM (inactive) | > 100 µM (inactive) | –
5 | Cn1c2ccccc2c(=O)c2c(O)cc3c(c21)C=CC(C)(C)O3 [NORACRONYCINE] | – | – | > 25 µM (inactive) | > 25 µM (inactive) | > 13.5 µM (inactive) | > 25 µM (inactive) | 19.4 µM (inactive) | – | > 10.2 µM (inactive) | 3.05 µM (inactive) | > 25 µM (inactive) | > 25 µM (inactive) | > 25 µM (inactive) | > 25 µM (inactive) | > 25 µM (inactive) | > 25 µM (inactive) | > 25 µM (inactive) | 13.7 µM (inactive) | –
6 | COc1cc(C(C)c2cc3c(cc2OCCO)OCO3)cc(OC)c1OC (stereo not drawn) | 1.18 µM (inactive) | 10.1 µM (inactive) | 12.2 µM (inactive) | 0.413 µM (active) | – | – | 1.71 µM (inactive) | 0.299 µM (active) | 1.43 µM (inactive) | 5.11 µM (inactive) | > 100 µM (inactive) | < 0.01 µM (active) | 1.66 µM (inactive) | 0.562 µM (active) | – | 2.86 µM (inactive) | – | > 100 µM (inactive) | –
7 | C[C@H]1[C@@H]2C[C@@H]3O[C@@]34[C@H]3CCC5Cc6nc7c(nc6C[C@@]5(C)[C@]3(O)CC(=O)[C@@]24CO[C@]12OC(C)(C)C[C@@H]2O)CC1CC[C@@H]2C3=C[C@H]4O[C@@]5(OC(C)(CO)C[C@@H]5O)[C@H](C)[C@@]4(O)[C@]3(C)[C@@H](O)CC2[C@]1(C)C7 (stereo partly drawn) | – | – | 0.00792 µM (active) | 0.00345 µM (active) | 0.0108 µM (active) | 0.0254 µM (active) | 0.191 µM (active) | – | 0.0378 µM (active) | 0.0809 µM (active) | 0.0381 µM (active) | 0.00769 µM (active) | 2.77 µM (inactive) | 0.0119 µM (active) | 0.0345 µM (active) | 0.0184 µM (active) | > 3.52 µM (inactive) | > 3.52 µM (inactive) | –
8 | O=C(O)CCCCCCCCC(=O)O [SEBACIC ACID] | – | – | > 500 µM (inactive) | 50 µM (inactive) | > 23.2 µM (inactive) | 5 µM (inactive) | 108 µM (inactive) | – | > 50 µM (inactive) | > 500 µM (inactive) | > 500 µM (inactive) | 3.62 µM (inactive) | > 79.3 µM (inactive) | 50 µM (inactive) | > 377 µM (inactive) | > 500 µM (inactive) | > 79.3 µM (inactive) | 387 µM (inactive) | –
9 | CC(C)CCC1CC2C(=O)N(c3ccccc3)C(=O)C2c2[nH]c3ccccc3c21 (stereo not drawn) | 0.288 µM (active) | 6.07 µM (inactive) | 3.45 µM (inactive) | 0.281 µM (active) | 1.84 µM (inactive) | – | 2.18 µM (inactive) | 3.4 µM (inactive) | – | – | 0.871 µM (active) | 0.206 µM (active) | 5.2 µM (inactive) | 0.6 µM (active) | – | 2.66 µM (inactive) | – | 7.06 µM (inactive) | 2.88 µM (inactive)
